Marks after values point to notes of the source that are not given here.
Tests used:
DIO mice (C57BL/6) = experiment: Oral Glucose Tolerance Test (OGTT) in DIO mice; assay type: in vivo, mouse; details: for Glucose AUC (% of vehicle): male DIO mice, OGTT (2 g/kg) 16 hours post injection
Description: Diet-induced obese (DIO) mouse model is a model of insulin resistance. Five to six months old male DIO mice (C57BL/6) from Taconic Biosciences are used in this study. Animals are individually housed in a temperature-controlled (24° C.) facility with a 12 hour light/dark cycle (lights on 06:00), and free access to food and water. The acclimation period to the facility is two weeks. The day before the study, animals are randomized into groups based on their body weight. That same afternoon, animals are fasted in clean cages and dosed with vehicle (40 mM Tris-HCl, pH 8.0) or test articles by subcutaneous injection. The following morning, 16 hours post the peptide injection, fasting body weights are obtained to calculate glucose doses. Blood samples are taken to measure time zero glucose. Animals are then given an oral gavage of glucose (2 g/kg). Two glucose readings via glucometers were obtained at 15, 30, 60 and 120 minutes post oral glucose. The average of two glucose readings is reported at each time point and an area under the curve is calculated. Statistics were analyzed using ANOVA with Dunnett's comparison by JMP 6; significance is denoted at p≤0.05 vs. vehicle.

[1] = test system: STZ-treated DIO mice (C57BL/6); experiment: OGTT in Streptozotocin (STZ)-treated DIO mice; assay type: in vivo, mouse; details: for Glucose AUC (% of vehicle): male STZ mice, OGTT (2 g/kg) 16 hours post injection
Description: STZ-treated mouse model is a model of early diabetes. Five to six months old male DIO mice (C57BL/6) from Taconic Biosciences are used in this study. Animals are individually housed in a temperature-controlled (24° C.) facility with a 12 hour light/dark cycle (lights on 6:00), and free access to food and water. After two weeks acclimation to the facility, mice are injected intraperitoneally with 50 mg/kg of STZ on Tuesday and Friday. Two weeks post the injection, animals with glucose levels between 180-300 mg/dL at 09:00 are selected for the OGTT study. The day before the study, animals are randomized into groups based on body weight and their glucose levels. Animals are treated with vehicle or testing articles by subcutaneous injection just prior to food removal overnight (16:00). The following morning at 08:00, 16 hours post compound injection, blood samples are taken to measure time zero glucose. Animals are given an oral dose of glucose of 2 g/kg. Glucose is measured 15, 30, 60, and 120 minutes post the oral glucose challenge. Statistics are analyzed using ANOVA with Dunnett's comparison by JMP 6. Significance is denoted at p≤0.05 vs. vehicle.

Compound: CC(C)C[C@H](NC(=O)[C@H](CC(C)C)NC(=O)[C@H](Cc1c[nH]c2ccccc12)NC(=O)[C@H](CCC(=O)O)NC(=O)[C@@H](NC(=O)[C@H](Cc1ccccc1)NC(=O)[C@H](CCC(=O)O)NC(=O)[C@H](CCCCNC(=O)COCCOCCNC(=O)COCCOCCNC(=O)CC[C@H](NC(=O)CCCCCCCCCCCCCCCCCCC(=O)O)C(=O)O)NC(=O)[C@H](C)NC(=O)[C@H](CCCCN)NC(=O)[C@H](CCCCN)NC(=O)[C@H](CCC(=O)O)NC(=O)[C@H](CC(=O)O)NC(=O)[C@H](CC(C)C)NC(=O)[C@H](Cc1ccc(O)cc1)NC(=O)[C@H](CCCCN)NC(=O)[C@H](CO)NC(=O)[C@H](Cc1ccc(O)cc1)NC(=O)[C@H](CC(=O)O)NC(=O)[C@H](CO)NC(=O)[C@@H](NC(=O)[C@H](Cc1ccccc1)NC(=O)[C@@H](NC(=O)CNC(=O)[C@H](CCC(N)=O)NC(=O)C(C)(C)NC(=O)[C@@H](N)Cc1c[nH]cn1)[C@@H](C)O)[C@@H](C)O)C(C)C)C(=O)N[C@@H](CCC(=O)O)C(=O)NCC(=O)NCC(=O)N1CCC[C@H]1C(=O)N[C@@H](CO)C(=O)N[C@@H](CO)C(=O)NCC(N)=O [Compound 2]
- Glucose AUC (% of vehicle) (DIO mice (C57BL/6); 1 nmol/kg sc): 76* % of vehicle
- Glucose AUC (% of vehicle) (DIO mice (C57BL/6); 3 nmol/kg sc): 50* % of vehicle
- Glucose AUC (% of vehicle) (DIO mice (C57BL/6); 10 nmol/kg sc): 39* % of vehicle
- glucose during the tolerance test (DIO mice (C57BL/6); male DIO mice, 1, 3 and 10 nmol/kg): dose-dependent decrease in glucose
- Glucose AUC (% of vehicle) ([1]; 1 nmol/kg sc): 70* % of vehicle
- Glucose AUC (% of vehicle) ([1]; 3 nmol/kg sc): 48* % of vehicle
- Glucose AUC (% of vehicle) ([1]; 10 nmol/kg sc): 35* % of vehicle
- glucose excursion during the tolerance test ([1]; male STZ mice, 1, 3 and 10 nmol/kg): dose dependent decrease in glucose excursion

Source: patent US9938335B2, “Glucagon and GLP-1 co-agonist compounds” (Eli Lilly and Company, priority 2015, dated 2018)
